Assay results as given in patent publication US20050020550A1, “Selective testicular 11beta-HSD inhibitors and methods of use thereof” (priority 2003, published 2005).

Columns and labels:
11β-HSD2 Dehydrogenase = target: T1, 11β-HSD2 Dehydrogenase (Homo sapiens, UniProt P80365); assay: Inhibition of 11β-HSD2 dehydrogenase (Table 1); assay type: biochemical
T1 sequence (P80365 1-405): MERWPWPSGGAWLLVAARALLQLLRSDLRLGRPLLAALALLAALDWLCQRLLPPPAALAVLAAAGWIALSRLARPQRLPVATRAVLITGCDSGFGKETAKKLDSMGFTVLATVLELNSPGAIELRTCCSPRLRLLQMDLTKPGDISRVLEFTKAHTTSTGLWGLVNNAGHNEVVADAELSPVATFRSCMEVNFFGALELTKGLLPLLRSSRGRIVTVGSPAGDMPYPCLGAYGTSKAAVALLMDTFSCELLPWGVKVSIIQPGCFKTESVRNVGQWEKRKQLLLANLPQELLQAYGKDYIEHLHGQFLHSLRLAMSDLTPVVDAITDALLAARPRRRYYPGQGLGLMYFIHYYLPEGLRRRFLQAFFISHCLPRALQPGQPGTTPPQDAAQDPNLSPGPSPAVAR

11β-HSD1 Reductase = target: T2, 11β-HSD1 Reductase (Rattus norvegicus, UniProt P16232); assay: Inhibition of 11β-HSD1 reductase (Table 1); assay type: cell-based
T2 construct: an enzyme present in testicular Leydig cells; endogenous in cells; host or cells: freshly prepared rat Leydig cells

11β-HSD1 Dehydrogenase = target: T3, 11β-HSD1 Dehydrogenase (Rattus norvegicus, UniProt P16232); assay: Inhibition of 11β-HSD1 dehydrogenase (Table 1); assay type: cell-based
T3 construct: an enzyme present in testicular Leydig cells; endogenous in cells; host or cells: freshly prepared rat Leydig cells

rat aortic rings = assay: Contractile response of rat aortic rings to phenylephrine; conditions: rat aortic rings incubated with the steroid, compared to controls
Protocol: Male Sprague-Dawley (150-200 g) rats were anesthetized with pentobarbital (50 mg/kg IP), and a median sternotomy was performed followed by the rapid removal of the thoracic aorta. The adventitia was removed, but the endothelium was left intact. The aorta was cut into 2-3 mm rings and individual rings were placed into a single well of a twenty four well culture plate and incubated at 37° C. under 95% O2-5% CO2. Each well contained 1 mL of DMEM/F12 containing 1% fetal bovine serum, streptomycin (100 μg/ml), penicillin (100 units/ml) and amphotericin (0.25 μg/ml). Aortic rings were incubated for 24 hours prior to contractility measurements with the following combinations of steroids, and antisense/nonsense oligonucleotides (3 μmol/L): • Corticosterone (10 nmol/L)+11β-HSD2 antisense or 11β-HSD2 nonsense oligomer • Corticosterone (10 nmol/L)+11β-HSD1 antisense or 11β-HSD1 nonsense oligomer • In 11-dehydrocorticosterone experiments with vehicle alone • 11-dehydrocorticosterone (100 nmol/L)+11β-HSD1 Antisense or 11β-HSD1 nonsense oligomer
Antisense phosphorothioate oligonucleotides, targeted to block either 11β-HSD2 or 11β-HSD1 gene expression, were obtained from Research Genetics, Huntsville Ala. Antisense oligomers complementary to 20 bp sequences spanning the ribosome binding/translation start site were used. Oligomer sequences were: 5′-CATAACTGCCGTCCAACAGC-3′ (SEQ ID No.: 2) for 11β-HSD1 Antisense and 5′-AGCCCAGCGCTCCATGACTT-3′ (SEQ ID No. 3) for 11β-HSD2 antisense. In control experiments the corresponding sense sequence was used as the nonsense oligomer. Antisense and nonsense oligomers were added directly to each well at 20 μg/10:1 sterile H2O per well for a final concentration of 3 μmol/L.
For contraction measurements, aortic rings were suspended by tungsten wires with 1 g of tension and placed in a vessel bath containing serum free DMEM/F 12 media at 37° C. aerated with 95% O2-5% CO2, at pH 7.4. Vessels were equilibrated for 20 minutes and then tested with phenylephrine (1 nmol/L−10 μmol/L). Although phenylephrine is structurally not a catecholamine, it is considered to be a functional catecholamine as it activates […]. Due to its favorable stability characteristics, it is widely used as a catecholamine substitute in experiments of this nature. The intensity of contraction was assessed by use of a Narishige micromanipulator and model FT03 force transducer (Grass Instrument Co. West Warwick, R.I.). Measurements were recorded on computer using the Labview 4.1 Virtual Instrument System (National Instruments, Austin, Tex.).

T2 sequence (P16232 whole entry): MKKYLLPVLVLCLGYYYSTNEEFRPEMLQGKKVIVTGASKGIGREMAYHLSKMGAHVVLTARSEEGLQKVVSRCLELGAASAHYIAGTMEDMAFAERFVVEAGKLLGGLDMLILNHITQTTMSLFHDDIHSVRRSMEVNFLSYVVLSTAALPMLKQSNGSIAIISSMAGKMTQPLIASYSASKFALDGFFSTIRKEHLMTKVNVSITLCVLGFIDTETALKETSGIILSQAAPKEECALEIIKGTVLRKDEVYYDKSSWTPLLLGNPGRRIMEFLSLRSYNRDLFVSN
T3 sequence (P16232 whole entry): as above

Structure (SMILES)	11β-HSD2 Dehydrogenase (inhibition) (11β-HSD2 Dehydrogenase)	11β-HSD1 Reductase (inhibition) (11β-HSD1 Reductase)	11β-HSD1 Dehydrogenase (inhibition) (11β-HSD1 Dehydrogenase)	effect of the steroid on contractile responses to phenylephrine (rat aortic rings)
C[C@]12CCC(=O)C=C1CC[C@@H]1[C@H]2C(=O)C[C@]2(C)C(=O)CC[C@H]12 (stereo in doubt) [11-Keto-androstenedione]	No Inhibition	Selective Inhibitor	No Inhibition	–
C[C@]12CC[C@@H]3[C@@H]([C@@H](O)C[C@]4(C=O)[C@@H](C(=O)CO)CC[C@H]34)[C@@]1(C)CC[C@H](O)C2 [3α,5α-reduced aldosterone]	Potent Inhibitor	No Inhibition	Moderate Inhibitor	–
C[C@]12CC[C@H](O)C[C@@H]1CC[C@@H]1[C@@H]2C(=O)C[C@]2(C)C(=O)CC[C@@H]12 [3α,5α-reduced-11-keto-androstenedione]	–	Selective Inhibitor	No Inhibition	–
CC(=O)[C@H]1CC[C@@H]2[C@@H]3CC[C@@H]4C[C@@H](O)CC[C@]4(C)[C@@H]3C(=O)C[C@]12C [3α,5α-reduced-11-keto-progesterone]	Potent Inhibitor	Selective Inhibitor	No Inhibition	–
C[C@]12CC[C@H](O)C[C@@H]1CC[C@H]1[C@@H]3CC[C@H](O)[C@@]3(C)CC(=O)[C@@H]12 [3α,5α-reduced-11-keto-testosterone]	–	Selective Inhibitor	No Inhibition	–
C[C@]12CC[C@H](O)C[C@H]1CC[C@@H]1[C@H]2[C@@H](O)C[C@]2(C)C(=O)CC[C@H]12 [3α,5α-reduced- 11β-OH—androstenedione]	Potent Inhibitor (Non-Selective)	No Inhibition	Moderate Inhibitor	–
CC(=O)[C@H]1CC[C@@H]2[C@@H]3CC[C@@H]4C[C@@H](O)CC[C@]4(C)[C@@H]3[C@@H](O)C[C@]12C [3α,5α-reduced- 11β-OH—progesterone]	Potent Inhibitor (Non-Selective)	No Inhibition	Potent Inhibitor (Non-Selective)	–
C[C@]12CC[C@H](O)C[C@H]1CC[C@@H]1[C@H]2[C@@H](O)C[C@@]2(C)[C@@H]1CC[C@@H]2O [3α,5α-reduced- 11β-OH—testosterone]	Potent Inhibitor (Non-Selective)	No Inhibition	Potent Inhibitor (Non-Selective)	–
C[C@]12CC[C@H](O)C[C@@H]1CC[C@@H]1[C@@H]2[C@@H](O)C[C@]2(C)[C@@H](C(=O)CO)CC[C@@H]12 [3α,5α-reduced- corticosterone]	Potent Inhibitor	No Inhibition	Potent Inhibitor	–
C[C@]12CC[C@H](O)C[C@@H]1CC[C@H]1[C@@H]3CC[C@H](C(=O)CO)[C@@]3(C)CC(=O)[C@@H]12 [3α,5α-tetrahydro-11-dehydro-corticosterone]	Potent Inhibitor	Potent Inhibitor	No Inhibition	–
CC(=O)[C@H]1CC[C@@H]2[C@@H]3CC[C@@H]4C[C@@H](O)CC[C@]4(C)[C@@H]3[C@@H](O)C[C@]12C [3α,5β-reduced- 11β-OH—progesterone]	No Inhibition	No Inhibition	Moderate Inhibitor	–
C[C@]12CC[C@H](O)C[C@H]1CC[C@@H]1[C@H]2[C@@H](O)C[C@@]2(C)[C@@H]1CC[C@@H]2O [3α,5β-reduced- 11β-OH—testosterone]	No Inhibition	No Inhibition	Moderate Inhibitor	–
C[C@]12CCC(=O)C[C@@H]1CC[C@@H]1[C@@H]2[C@@H](O)C[C@]2(C)[C@@H](C(=O)CO)CC[C@@H]12 [5α-dihydro- corticosterone]	Potent Inhibitor	No inhibition	Potent Inhibitor	–
C[C@]12CC(=O)[C@@H]3[C@@H](CCC4=CC(=O)CC[C@@]43C)[C@H]1CC[C@@H]2O [11-Keto-testosterone]	No Inhibition	Selective Inhibitor	No Inhibition	–
C[C@]12CC(=O)[C@H]3[C@@H](CCC4=CC(=O)CC[C@@]43C)[C@@H]1CC[C@@H]2C(=O)CO [11-dehydro-corticosterone, reference compound]	–	–	–	amplifies the contractile responses
CC(=O)[C@H]1CC[C@@H]2[C@@H]3CCC4=CC(=O)CC[C@]4(C)[C@@H]3[C@@H](O)C[C@]12C [11β-OH—progesterone]	–	No Inhibition	Potent Inhibitor (Non-Selective)	–
C[C@]12C[C@H](O)[C@@H]3[C@@H](CCC4=CC(=O)CC[C@@]43C)[C@H]1CC[C@@H]2O [11β-OH—testosterone]	Inhibitor (Non-Selective)	No Inhibition	Inhibitor (Non-Selective)	–
C[C@H](CCC(=O)O)[C@H]1CC[C@H]2[C@@H]3[C@H](O)C[C@@H]4C[C@H](O)CC[C@]4(C)[C@H]3CC[C@]12C [chenodeoxycholic acid]	No Inhibition	No Inhibition	Selective inhibitor	–
C[C@]12C[C@H](O)[C@H]3[C@@H](CCC4=CC(=O)CC[C@@]43C)[C@@H]1CC[C@@H]2C(=O)CO [corticosterone, reference compound]	–	–	–	amplified contractile responses
